# What was measured:
# Format in all cases: cell-based
# Enterobacter cloacae = assay: MIC against Gram-negative bacteria: Enterobacter cloacae
# In short: (§1)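 The recombinant human-originated EGF domain proteins were serially diluted two-fold against bacteria at 5×10^5 CFU/mL in LB medium. After shaken incubation at 37° C, the lowest concentration with no bacterial growth was recorded as the MIC.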
# E. coli DH5α = assay: Antibacterial activity: MIC and growth curve against E. coli DH5α in 96-well plate; details: minimal inhibitory concentration against E. coli DH5α; 96-well plate, 5×10^5 CFU/mL, 37° C., judged after 8 h
# In short: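 Log-phase bacteria (OD600 ~0.5) resuspended in LB at 5×10^5 CFU/mL, exposed to recombinant protein at 50, 25, 12.5 μg/mL final in triplicate, 37 °C shaking at 175 rpm. OD600 read every 30 min; MIC is lowest concentration showing no growth.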
# Pseudomonas aeruginosa = assay: MIC against Gram-negative bacteria: Pseudomonas aeruginosa
# In short: as §1
# Citrobacter diversus = assay: MIC against Gram-negative bacteria: Citrobacter diversus
# In short: as §1
# Aeromonas hydrophila = assay: MIC against Gram-negative bacteria: Aeromonas hydrophila
# In short: as §1
# Serratia marcescens = assay: MIC against Gram-negative bacteria: Serratia marcescens
# In short: as §1
# Klebsiella pneumonia = assay: MIC against Gram-negative bacteria: Klebsiella pneumonia
# In short: as §1
# Moraxella catarrhalis = assay: MIC against Gram-negative bacteria: Moraxella catarrhalis
# In short: as §1
# Proteus mirabilis = assay: MIC against Gram-negative bacteria: Proteus mirabilis
# In short: as §1
# E. coli BL21 = assay: MIC against Gram-negative bacteria: E. coli BL21
# In short: as §1
# Proteus vulgaris = assay: MIC against Gram-negative bacteria: Proteus vulgaris
# In short: as §1
# [1] = 96-well plate, 5×10^5 CFU/mL, 37° C., 10 h
# [2] = E. cloacae, 10 h cultivation at 37° C., 5×10^5 CFU/mL
# [3] = P. aeruginosa, 10 h cultivation at 37° C., 5×10^5 CFU/mL
# [4] = C. diversus, 10 h cultivation at 37° C., 5×10^5 CFU/mL
# [5] = A. hydrophila, 10 h cultivation at 37° C., 5×10^5 CFU/mL
# [6] = S. marcescens, 10 h cultivation at 37° C., 5×10^5 CFU/mL
# [7] = K. pneumonia, 10 h cultivation at 37° C., 5×10^5 CFU/mL
# [8] = M. catarrhalis, 10 h cultivation at 37° C., 5×10^5 CFU/mL
# [9] = P. mirabilis, 10 h cultivation at 37° C., 5×10^5 CFU/mL
# [10] = E. coli BL21, 10 h cultivation at 37° C., 5×10^5 CFU/mL
# [11] = P. vulgaris, 10 h cultivation at 37° C., 5×10^5 CFU/mL
# [12] = E. cloacae, 10 h cultivation at 37° C.
# [13] = P. aeruginosa, 10 h cultivation at 37° C.
# [14] = C. diversus, 10 h cultivation at 37° C.
# [15] = A. hydrophila, 10 h cultivation at 37° C.
# [16] = S. marcescens, 10 h cultivation at 37° C.
# [17] = K. pneumonia, 10 h cultivation at 37° C.
# [18] = M. catarrhalis, 10 h cultivation at 37° C.
# [19] = P. mirabilis, 10 h cultivation at 37° C.
# [20] = E. coli BL21, 10 h cultivation at 37° C.
# [21] = P. vulgaris, 10 h cultivation at 37° C.
# [22] = 10 h cultivation at 37° C., 5×10^5 CFU/mL, two-fold serial dilution
substance,measurement,setting,value
PRT92 (VSDLCATGDHDCEQVCISSPGSYTCACHEGFTLNSDGKTCN; listed as Homo sapiens),MIC (μg/mL) E. cloacae,"Enterobacter cloacae; Enterobacter cloacae, 96-well plate, 5×10^5 CFU/mL, 37° C., 10 h",50 µg/mL
same,MIC,E. coli DH5α,50 µg/mL
same,MIC (μg/mL) P. aeruginosa,"Pseudomonas aeruginosa; Pseudomonas aeruginosa, 96-well plate, 5×10^5 CFU/mL, 37° C., 10 h",50 µg/mL
same,MIC (μg/mL) C. diversus,"Citrobacter diversus; Citrobacter diversus, 96-well plate, 5×10^5 CFU/mL, 37° C., 10 h",12.5 µg/mL
same,MIC (μg/mL) A. hydrophila,"Aeromonas hydrophila; Aeromonas hydrophila, 96-well plate, 5×10^5 CFU/mL, 37° C., 10 h",25 µg/mL
same,MIC (μg/mL) S. marcescens,"Serratia marcescens; Serratia marcescens, 96-well plate, 5×10^5 CFU/mL, 37° C., 10 h",12.5 µg/mL
same,MIC (μg/mL) K. pneumonia,"Klebsiella pneumonia; Klebsiella pneumonia, 96-well plate, 5×10^5 CFU/mL, 37° C., 10 h",12.5 µg/mL
same,MIC (μg/mL) M. catarrhalis,"Moraxella catarrhalis; Moraxella catarrhalis, 96-well plate, 5×10^5 CFU/mL, 37° C., 10 h",25 µg/mL
same,MIC (μg/mL) P. mirabilis,"Proteus mirabilis; Proteus mirabilis, 96-well plate, 5×10^5 CFU/mL, 37° C., 10 h",50 µg/mL
same,MIC (μg/mL) E. coli BL21,"E. coli BL21; E. coli BL21, 96-well plate, 5×10^5 CFU/mL, 37° C., 10 h",12.5 µg/mL
same,MIC (μg/mL) P. vulgaris,"Proteus vulgaris; Proteus vulgaris, 96-well plate, 5×10^5 CFU/mL, 37° C., 10 h",25 µg/mL
PRT688 (DVDECQLFRDQVCKSGVCVNTAPGYSCYCSNGYYYHTQRLECI; listed as Homo sapiens),MIC E. cloacae,Enterobacter cloacae; [1],12.5 µg/mL
same,MIC,E. coli DH5α,25 µg/mL
same,MIC P. aeruginosa,Pseudomonas aeruginosa; [1],25 µg/mL
same,MIC C. diversus,Citrobacter diversus; [1],50 µg/mL
same,MIC A. hydrophila,Aeromonas hydrophila; [1],25 µg/mL
same,MIC S. marcescens,Serratia marcescens; [1],50 µg/mL
same,MIC K. pneumonia,Klebsiella pneumonia; [1],50 µg/mL
same,MIC M. catarrhalis,Moraxella catarrhalis; [1],12.5 µg/mL
same,MIC P. mirabilis,Proteus mirabilis; [1],50 µg/mL
same,MIC E. coli BL21,E. coli BL21; [1],12.5 µg/mL
same,MIC P. vulgaris,Proteus vulgaris; [1],100 µg/mL
PRT155 (APGPCAAQPCRNGGVCTSRPEPDPQHPAPAGEPGYSCTCPAGISGANCQ; listed as Homo sapiens),MIC (μg/mL) E. cloacae,Enterobacter cloacae; [2],12.5 µg/mL
same,MIC,E. coli DH5α,12.5 µg/mL
same,MIC (μg/mL) P. aeruginosa,Pseudomonas aeruginosa; [3],12.5 µg/mL
same,MIC (μg/mL) C. diversus,Citrobacter diversus; [4],12.5 µg/mL
same,MIC (μg/mL) A. hydrophila,Aeromonas hydrophila; [5],25 µg/mL
same,MIC (μg/mL) S. marcescens,Serratia marcescens; [6],12.5 µg/mL
same,MIC (μg/mL) K. pneumonia,Klebsiella pneumonia; [7],25 µg/mL
same,MIC (μg/mL) M. catarrhalis,Moraxella catarrhalis; [8],25 µg/mL
same,MIC (μg/mL) P. mirabilis,Proteus mirabilis; [9],12.5 µg/mL
same,MIC (μg/mL) E. coli BL21,E. coli BL21; [10],25 µg/mL
same,MIC (μg/mL) P. vulgaris,Proteus vulgaris; [11],25 µg/mL
PRT427 (DVNECETGVHRCGEGQVCHNLPGSYRCDCKAGFQRDAFGRGCI; listed as Homo sapiens),MIC,Enterobacter cloacae; [2],25 µg/mL
same,MIC,E. coli DH5α,25 µg/mL
same,MIC,Pseudomonas aeruginosa; [3],25 µg/mL
same,MIC,Citrobacter diversus; [4],25 µg/mL
same,MIC,Aeromonas hydrophila; [5],12.5 µg/mL
same,MIC,Serratia marcescens; [6],25 µg/mL
same,MIC,Klebsiella pneumonia; [7],50 µg/mL
same,MIC,Moraxella catarrhalis; [8],50 µg/mL
same,MIC,Proteus mirabilis; [9],25 µg/mL
same,MIC,E. coli BL21; [10],12.5 µg/mL
same,MIC,Proteus vulgaris; [11],12.5 µg/mL
PRT829 (FGPSCTLHCDCGGGADCDPVSGQCHCVDGYMGPTCR; listed as Homo sapiens),MIC (μg/mL) E. cloacae,Enterobacter cloacae; [2],50 µg/mL
same,MIC,E. coli DH5α,50 µg/mL
same,MIC (μg/mL) P. aeruginosa,Pseudomonas aeruginosa; [3],12.5 µg/mL
same,MIC (μg/mL) C. diversus,Citrobacter diversus; [4],12.5 µg/mL
same,MIC (μg/mL) A. hydrophila,Aeromonas hydrophila; [5],25 µg/mL
same,MIC (μg/mL) S. marcescens,Serratia marcescens; [6],12.5 µg/mL
same,MIC (μg/mL) K. pneumonia,Klebsiella pneumonia; [7],25 µg/mL
same,MIC (μg/mL) M. catarrhalis,Moraxella catarrhalis; [8],25 µg/mL
same,MIC (μg/mL) P. mirabilis,Proteus mirabilis; [9],50 µg/mL
same,MIC (μg/mL) E. coli BL21,E. coli BL21; [10],25 µg/mL
same,MIC (μg/mL) P. vulgaris,Proteus vulgaris; [11],12.5 µg/mL
PRT509 (CNCSTVGSLDFQCNVNTGQCNCHPKFSGAKCTECSRGHWNYPRCNL; listed as Homo sapiens),MIC against E. cloacae,Enterobacter cloacae; [1],12.5 µg/mL
same,MIC,E. coli DH5α,12.5 µg/mL
same,MIC against P. aeruginosa,Pseudomonas aeruginosa; [1],12.5 µg/mL
same,MIC against C. diversus,Citrobacter diversus; [1],12.5 µg/mL
same,MIC against A. hydrophila,Aeromonas hydrophila; [1],12.5 µg/mL
same,MIC against S. marcescens,Serratia marcescens; [1],25 µg/mL
same,MIC against K. pneumonia,Klebsiella pneumonia; [1],25 µg/mL
same,MIC against M. catarrhalis,Moraxella catarrhalis; [1],12.5 µg/mL
same,MIC against P. mirabilis,Proteus mirabilis; [1],12.5 µg/mL
same,MIC against E. coli BL21,E. coli BL21; [1],25 µg/mL
same,MIC against P. vulgaris,Proteus vulgaris; [1],12.5 µg/mL
PRT1375 (SIRTCPSNCHGRGRCEEGRCLCDPGYTGPTC; listed as Homo sapiens),MIC against E. cloacae,"Enterobacter cloacae; Enterobacter cloacae, 5×10^5 CFU/mL, 10 h cultivation at 37° C.",12.5 µg/mL
same,MIC,E. coli DH5α,12.5 µg/mL
same,MIC against P. aeruginosa,"Pseudomonas aeruginosa; Pseudomonas aeruginosa, 5×10^5 CFU/mL, 10 h cultivation at 37° C.",12.5 µg/mL
same,MIC against C. diversus,"Citrobacter diversus; Citrobacter diversus, 5×10^5 CFU/mL, 10 h cultivation at 37° C.",12.5 µg/mL
same,MIC against A. hydrophila,"Aeromonas hydrophila; Aeromonas hydrophila, 5×10^5 CFU/mL, 10 h cultivation at 37° C.",25 µg/mL
same,MIC against S. marcescens,"Serratia marcescens; Serratia marcescens, 5×10^5 CFU/mL, 10 h cultivation at 37° C.",12.5 µg/mL
same,MIC against K. pneumonia,"Klebsiella pneumonia; Klebsiella pneumonia, 5×10^5 CFU/mL, 10 h cultivation at 37° C.",12.5 µg/mL
same,MIC against M. catarrhalis,"Moraxella catarrhalis; Moraxella catarrhalis, 5×10^5 CFU/mL, 10 h cultivation at 37° C.",25 µg/mL
same,MIC against P. mirabilis,"Proteus mirabilis; Proteus mirabilis, 5×10^5 CFU/mL, 10 h cultivation at 37° C.",50 µg/mL
same,MIC against E. coli BL21,"E. coli BL21; E. coli BL21, 5×10^5 CFU/mL, 10 h cultivation at 37° C.",12.5 µg/mL
same,MIC against P. vulgaris,"Proteus vulgaris; Proteus vulgaris, 5×10^5 CFU/mL, 10 h cultivation at 37° C.",25 µg/mL
PRT1033 (LYVPCAPSPCVNGGTCRQTGDFTFECNCLPETVRRGTE; listed as Homo sapiens),MIC,Enterobacter cloacae; [12],50 µg/mL
same,MIC,E. coli DH5α,50 µg/mL
same,MIC,Pseudomonas aeruginosa; [13],50 µg/mL
same,MIC,Citrobacter diversus; [14],50 µg/mL
same,MIC,Aeromonas hydrophila; [15],12.5 µg/mL
same,MIC,Serratia marcescens; [16],50 µg/mL
same,MIC,Klebsiella pneumonia; [17],25 µg/mL
same,MIC,Moraxella catarrhalis; [18],100 µg/mL
same,MIC,Proteus mirabilis; [19],50 µg/mL
same,MIC,E. coli BL21; [20],12.5 µg/mL
same,MIC,Proteus vulgaris; [21],25 µg/mL
PRT1024 (DVDECQPSRCHPDAFCYNTPGSFTCQCKPGYQGDGFRCV; listed as Homo sapiens),MIC,Enterobacter cloacae; [12],12.5 µg/mL
same,MIC,E. coli DH5α,50 µg/mL
same,MIC,Pseudomonas aeruginosa; [13],50 µg/mL
same,MIC,Citrobacter diversus; [14],50 µg/mL
same,MIC,Aeromonas hydrophila; [15],25 µg/mL
same,MIC,Serratia marcescens; [16],12.5 µg/mL
same,MIC,Klebsiella pneumonia; [17],25 µg/mL
same,MIC,Moraxella catarrhalis; [18],25 µg/mL
same,MIC,Proteus mirabilis; [19],12.5 µg/mL
same,MIC,E. coli BL21; [20],12.5 µg/mL
same,MIC,Proteus vulgaris; [21],50 µg/mL
PRT1071 (ELDQCWEHCRNGGTCAASPSGMPTCRCPTGFTGPKCT; listed as Homo sapiens),MIC E. cloacae,Enterobacter cloacae; [22],50 µg/mL
same,MIC,E. coli DH5α,50 µg/mL
same,MIC P. aeruginosa,Pseudomonas aeruginosa; [22],12.5 µg/mL
same,MIC C. diversus,Citrobacter diversus; [22],12.5 µg/mL
same,MIC A. hydrophila,Aeromonas hydrophila; [22],25 µg/mL
same,MIC S. marcescens,Serratia marcescens; [22],12.5 µg/mL
same,MIC K. pneumonia,Klebsiella pneumonia; [22],25 µg/mL
same,MIC M. catarrhalis,Moraxella catarrhalis; [22],50 µg/mL
same,MIC P. mirabilis,Proteus mirabilis; [22],12.5 µg/mL
same,MIC E. coli BL21,E. coli BL21; [22],25 µg/mL
same,MIC P. vulgaris,Proteus vulgaris; [22],50 µg/mL
